Ki data for one compound are collected here from patent publication US20100093756A1, “HETEROARYL SUBSTITUTED THIENO[2,3-d]PYRIMIDINE AND THEIR USE AS ADENOSINE A2a RECEPTOR ANTAGONISTS” (priority 2008, published 2010).

Molecules are shown by their SMILES.

Assay [1] has as its target T1, human adenosine A2a receptor (Homo sapiens, UniProt P29274).
T1 construct: expressed in transfected cells; host or cells: CHO-K1
The assay can be described thus: Adenosine A2a Receptor Functional Assay (A2AGAL2). The assay is classed as cell-based. The conditions noted are these: CHO-K1 cells, cAMP inducible beta-galactosidase reporter, 15 nM NECA agonist challenge. On the procedure: Adenosine A2a Receptor Functional Assay (A2AGAL2)
To initiate the functional assay, cryopreserved CHO-K1 cells overexpressing the human adenosine A2a receptor and containing a cAMP inducible beta-galactosidase reporter gene were thawed, centrifuged, DMSO containing media removed, and then seeded with fresh culture media into clear 384-well tissue culture treated plates (BD #353961) at a concentration of 10K cells/well. Prior to assay, these plates were cultured for two days at 37° C., 5% CO2, 90% Rh. On the day of the functional assay, culture media was removed and replaced with 45 uL assay medium (Hams/F-12 Modified (Mediatech #10-080CV) supplemented w/0.1% BSA). Test compounds were diluted and 11 point curves created at a 1000× concentration in 100% DMSO. Immediately after addition of assay media to the cell plates, 50 nL of the appropriate test compound antagonist or agonist control curves were added to cell plates using a Cartesian Hummingbird. Compound curves were allowed to incubate at room temperature on cell plates for approximately 15 minutes before addition of a 15 nM NECA (Sigma E2387) agonist challenge (5 uL volume). A control curve of NECA, a DMSO/Media control, and a single dose of Forskolin (Sigma F3917) were also included on each plate. After additions, cell plates were allowed to incubate at 37° C., 5% CO2, 90% Rh for 5.5-6 hours. After incubation, media was removed, and cell plates were washed 1×50 uL with DPBS w/o Ca & Mg (Mediatech 21-031-CV). Into dry wells, 20 uL of 1× Reporter Lysis Buffer (Promega E3971 (diluted in dH2O from 5× stock)) was added to each well and plates frozen at −20° C. overnight. For β-galactosidase enzyme colorimetric assay, plates were thawed out at room temperature and 20μL 2× assay buffer (Promega) was added to each well. Color was allowed to develop at 37° C., 5% CO2, 90% Rh for 1-1.5 h or until reasonable signal appeared. The calorimetric reaction was stopped with the addition of 60 μL/well 1M sodium carbonate. Plates were counted at 405 nm on a SpectraMax Microplate Reader (Molecular Devices). Data was analyzed in Microsoft Excel and IC/EC50 curves were fit using a standardized macro.

Assay [2] concerns the target T2, human A2a adenosine receptor (Homo sapiens, UniProt P29274).
T2 construct: purchased PerkinElmer RB-HA2a; host or cells: HEK293 plasma membrane
Briefly: Ligand Binding Assay for Adenosine A2a Receptor (A2A-B). The conditions noted are these: HEK293 cell plasma membrane, radioligand [3H]CGS21680. On the procedure: Ligand Binding Assay for Adenosine A2a Receptor (A2A-B)
Ligand binding assay of adenosine A2a receptor was performed using plasma membrane of HEK293 cells containing human A2a adenosine receptor (PerkinElmer, RB-HA2a) and radioligand [^3H]CGS21680 (PerkinElmer, NET1021). Assay was set up in 96-well polypropylene plate in total volume of 200 μL by sequentially adding 20 μL 1:20 diluted membrane, 130 μL assay buffer (50 mM Tris.HCl, pH7.4 10 mM MgCl2, 1 mM EDTA) containing [^3H] CGS21680, 50 μL diluted compound (4×) or vehicle control in assay buffer. Nonspecific binding was determined by […] NECA. Reaction was carried out at room temperature for 2 hours before filtering through 96-well GF/C filter plate pre-soaked in 50 mM Tris.HCl, pH7.4 containing 0.3% polyethylenimine. Plates were then washed 5 times with cold 50 mM Tris.HCl, pH7.4, dried and sealed at the bottom. Microscintillation fluid 30 μL was added to each well and the top sealed. Plates were counted on Packard Topcount for [^3H]. Data was analyzed in Microsoft Excel and GraphPad Prism programs. (Varani, K.; Gessi, S.; Dalpiaz, A.; Borea, P. A. British Journal of Pharmacology, 1996, 117, 1693)

The target of assay [3] is T3, human adenosine A1 receptor (Homo sapiens, UniProt P30542).
T3 construct: expressed in transfected cells; host or cells: CHO-K1
T3 sequence (P30542 1-326): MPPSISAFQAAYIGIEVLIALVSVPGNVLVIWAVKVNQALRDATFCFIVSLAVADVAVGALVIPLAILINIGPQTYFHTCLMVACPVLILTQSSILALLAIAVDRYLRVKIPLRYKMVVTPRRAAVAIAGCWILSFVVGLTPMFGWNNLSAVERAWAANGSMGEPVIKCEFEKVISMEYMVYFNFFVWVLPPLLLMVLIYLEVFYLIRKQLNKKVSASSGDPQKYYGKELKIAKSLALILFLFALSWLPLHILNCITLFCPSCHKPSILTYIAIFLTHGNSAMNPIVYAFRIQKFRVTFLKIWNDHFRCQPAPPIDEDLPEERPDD
The assay can be described thus: Adenosine A1 Receptor Functional Assay (A1GAL2). The format is cell-based. The conditions noted are these: CHO-K1 cells, cAMP inducible beta-galactosidase reporter, 4 nM r-PIA/1 uM Forskolin agonist challenge. On the procedure: Adenosine A1 Receptor Functional Assay (A1GAL2)
To initiate the functional assay, cryopreserved CHO-K1 cells overexpressing the human adenosine A1 receptor and containing a cAMP inducible beta-galactosidase reporter gene were thawed, centrifuged, DMSO containing media removed, and then seeded with fresh culture media into clear 384-well tissue culture treated plates (BD #353961) at a concentration of 10K cells/well. Prior to assay, these plates were cultured for two days at 37° C., 5% CO2, 90% Rh. On the day of the functional assay, culture media was removed and replaced with 45 uL assay medium (Hams/F-12 Modified (Mediatech #10-080CV) supplemented w/0.1% BSA). Test compounds were diluted and 11 point curves created at a 1000× concentration in 100% DMSO. Immediately after addition of assay media to the cell plates, 50 nL of the appropriate test compound antagonist or agonist control curves were added to cell plates using a Cartesian Hummingbird. Compound curves were allowed to incubate at room temperature on cell plates for approximately 15 minutes before addition of a 4 nM r-PIA (Sigma P4532)/1 uM Forskolin (Sigma F3917) agonist challenge (5 uL volume). A control curve of r-PIA in 1 uM Forskolin, a DMSO/Media control, and a single dose of Forskolin were also included on each plate. After additions, cell plates were allowed to incubate at 37° C., 5% CO2, 90% Rh for 5.5-6 hours. After incubation, media was removed, and cell plates were washed 1×50 uL with DPBS w/o Ca & Mg (Mediatech 21-031-CV). Into dry wells, 20 uL of 1× Reporter Lysis Buffer (Promega E3971 (diluted in dH2O from 5× stock)) was added to each well and plates frozen at −20° C. overnight. For β-galactosidase enzyme colorimetric assay, plates were thawed out at room temperature and 20 μL 2× assay buffer (Promega) was added to each well. Color was allowed to develop at 37° C., 5% CO2, 90% Rh for 1-1.5 h or until reasonable signal appeared. The colorimetric reaction was stopped with the addition of 60 μL/well 1M sodium carbonate. Plates were counted at 405 nm on a SpectraMax Microplate Reader (Molecular Devices). Data was analyzed in Microsoft Excel and IC/EC50 curves were fit using a standardized macro.

One may read the Ki as the dissociation constant of the complex between target and ligand, obtained from inhibition or displacement.

T1 sequence (P29274 whole entry): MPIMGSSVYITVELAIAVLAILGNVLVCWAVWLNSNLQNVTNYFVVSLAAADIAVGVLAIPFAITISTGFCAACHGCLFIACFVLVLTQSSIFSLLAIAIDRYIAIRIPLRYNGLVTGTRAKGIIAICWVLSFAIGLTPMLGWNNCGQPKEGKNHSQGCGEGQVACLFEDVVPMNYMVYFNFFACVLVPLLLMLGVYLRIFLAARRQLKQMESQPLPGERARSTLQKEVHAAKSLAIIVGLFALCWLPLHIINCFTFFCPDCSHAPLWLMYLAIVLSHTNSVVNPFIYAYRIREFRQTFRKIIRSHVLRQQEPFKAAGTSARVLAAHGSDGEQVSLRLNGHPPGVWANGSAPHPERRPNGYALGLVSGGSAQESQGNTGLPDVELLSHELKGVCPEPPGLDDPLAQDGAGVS
T2 sequence (P29274 whole entry): as above

`CC(O)(c1cc2c(N)nc(-c3ccc(C(F)F)o3)nc2s1)c1ncccc1F` (stereo not drawn) [Example 30, 1-[4-Amino-2-(5-difluoromethyl-furan-2-yl)-thieno[2,3-d]pyrimidin-6-yl]-1-(3-fluoro-pyridin-2-yl)-ethanol]: the Ki was found to be 11.4 nM in assay [1], 16.3 nM in assay [2] and 403 nM in assay [3].
